In ChEMBL document CHEMBL2407067, “Pyridone-conjugated monobactam antibiotics with gram-negative activity” (J Med Chem, 2013):
Converted amounts (≈) assume the structure as drawn.

Columns and labels:
Acinetobacter baumannii = assay: Antibacterial activity against Acinetobacter baumannii AB-3167 by broth microdilution method; assay type: functional
Klebsiella pneumoniae [1] = assay: Antibacterial activity against Klebsiella pneumoniae 1487-07 by broth microdilution method; assay type: functional
Klebsiella pneumoniae [2] = assay: Antibacterial activity against Klebsiella pneumoniae 1000-02 by broth microdilution method; assay type: functional
Pseudomonas aeruginosa [3] = assay: Antibacterial activity against Pseudomonas aeruginosa 1042-06 by broth microdilution method; assay type: functional
Pseudomonas aeruginosa [4] = assay: microbe, parasite or virus in culture; conditions: 1091-05
Description: Antibacterial activity against Pseudomonas aeruginosa 1091-05 by broth microdilution method

[5] = Inhibition of PBP3 in Pseudomonas aeruginosa ATCC 27853 after 20 mins by fluorescence assay
[6] = Inhibition of PBP2 in Pseudomonas aeruginosa ATCC 27853 after 20 mins by fluorescence assay
[7] = Inhibition of PBP1b in Pseudomonas aeruginosa ATCC 27853 after 20 mins by fluorescence assay
[8] = Inhibition of PBP1a in Pseudomonas aeruginosa ATCC 27853 after 20 mins by fluorescence assay
Pseudomonas aeruginosa [9] = assay: Antibacterial activity against Pseudomonas aeruginosa from cystic fibrosis patients by broth microdilution method; assay type: functional
Acinetobacter sp. = assay: Antibacterial activity against Acinetobacter spp. by broth microdilution method; assay type: functional
Escherichia coli [10] = assay: Antibacterial activity against Escherichia coli expressing defined beta-lactamase by broth microdilution method; assay type: functional
Escherichia coli [11] = assay: Antibacterial activity against Escherichia coli expressing CTX-M by broth microdilution method; assay type: functional
Escherichia coli [12] = assay: Antibacterial activity against Escherichia coli expressing ESBL by broth microdilution method; assay type: functional
Klebsiella pneumoniae [13] = assay: Antibacterial activity against Klebsiella pneumoniae expressing ESBL by broth microdilution method; assay type: functional
Klebsiella pneumoniae [14] = assay: Antibacterial activity against Klebsiella pneumoniae expressing defined beta-lactamase by broth microdilution method; assay type: functional
Pseudomonas aeruginosa [15] = assay: Antibacterial activity against Pseudomonas aeruginosa expressing metallo-beta-lactamase by broth microdilution method; assay type: functional

Row | SMILES | MIC (Acinetobacter baumannii) [µg/mL] | MIC (Klebsiella pneumoniae [1]) [µg/mL] | MIC (Klebsiella pneumoniae [2]) [µg/mL] | MIC (Pseudomonas aeruginosa [3]) [µg/mL] | MIC (Pseudomonas aeruginosa [4]) [µg/mL] | other results
1 | Nc1nc(/C(=N/OCCO)C(=O)N[C@@H]2C(=O)N(S(=O)(=O)O)[C@@H]2CNC(=O)NCc2cc(=O)c(O)cn2O)cs1 | 0.5 (≈ 0.847 µM) | 32 (≈ 54.2 µM) | 32 (≈ 54.2 µM) | 16 (≈ 27.1 µM) | 0.5 (≈ 0.847 µM) | –
2 | CC(C)(O/N=C(\C(=O)N[C@@H]1C(=O)N(S(=O)(=O)O)[C@@H]1CNC(=O)c1cc(=O)c(O)c[nH]1)c1csc(N)n1)C(=O)O | 0.125 (≈ 0.213 µM) | – | 0.5 (≈ 0.851 µM) | 0.5 (≈ 0.851 µM) | 0.125 (≈ 0.213 µM) | –
3 | CC(C)(O/N=C(\C(=O)N[C@@H]1C(=O)N(S(=O)(=O)O)[C@@H]1CNC(=O)c1cc(=O)c(O)cn1-c1ccccc1)c1csc(N)n1)C(=O)O | 32 (≈ 48.2 µM) | 16 (≈ 24.1 µM) | 1 (≈ 1.51 µM) | 32 (≈ 48.2 µM) | 32 (≈ 48.2 µM) | IC50 [5]: 140 nM; IC50 [6]: > 300 µM; IC50 [7]: 7.4 µM; IC50 [8]: 580 nM
4 | CC(C)C[C@H](O/N=C(\C(=O)N[C@@H]1C(=O)N(S(=O)(=O)O)[C@@H]1CNC(=O)NCc1cc(=O)c(O)cn1O)c1csc(N)n1)C(=O)O | 1 (≈ 1.51 µM) | 1 (≈ 1.51 µM) | – | 16 (≈ 24.2 µM) | 1 (≈ 1.51 µM) | –
5 | O=C(O)c1cn(C2CC2)c2cc(N3CCNCC3)c(F)cc2c1=O [CIPROFLOXACIN] | 0.06 (≈ 0.181 µM) | – | – | 64 (≈ 193 µM) | – | MIC50 (Pseudomonas aeruginosa [9]): 2 µg/mL (≈ 6.04 µM); MIC90 (Pseudomonas aeruginosa [9]): 16 µg/mL (≈ 48.3 µM); MIC50 (Acinetobacter sp.): 0.5 µg/mL (≈ 1.51 µM); MIC90 (Acinetobacter sp.): > 64 µg/mL; MIC50 (Escherichia coli [10]): 0.03 µg/mL (≈ 0.0905 µM); MIC90 (Escherichia coli [10]): 0.06 µg/mL (≈ 0.181 µM); MIC90 (Escherichia coli [11]): > 64 µg/mL; MIC50 (Escherichia coli [12]): > 64 µg/mL; MIC90 (Escherichia coli [12]): > 64 µg/mL; MIC50 (Klebsiella pneumoniae [13]): 0.25 µg/mL (≈ 0.754 µM); MIC50 (Klebsiella pneumoniae [14]): 0.5 µg/mL (≈ 1.51 µM); MIC50 (Pseudomonas aeruginosa [15]): 32 µg/mL (≈ 96.6 µM); MIC90 (Pseudomonas aeruginosa [15]): > 64 µg/mL
6 | NCCO/N=C(\C(=O)N[C@@H]1C(=O)N(S(=O)(=O)O)[C@@H]1CNC(=O)NCc1cc(=O)c(O)cn1O)c1csc(N)n1 | 4 (≈ 6.78 µM) | > 64 | > 64 | > 64 | 4 (≈ 6.78 µM) | –
7 | Nc1nc(/C(=N/OC2CCCC2)C(=O)N[C@@H]2C(=O)N(S(=O)(=O)O)[C@@H]2CNC(=O)NCc2cc(=O)c(O)cn2O)cs1 | 1 (≈ 1.63 µM) | 32 (≈ 52.1 µM) | 8 (≈ 13 µM) | 16 (≈ 26 µM) | 1 (≈ 1.63 µM) | –
8 | Nc1nc(/C(=N/OC2(C(=O)O)CCCC2)C(=O)N[C@@H]2C(=O)N(S(=O)(=O)O)[C@@H]2CNC(=O)NCc2cc(=O)c(O)cn2O)cs1 | 0.125 (≈ 0.19 µM) | 0.5 (≈ 0.759 µM) | 0.25 (≈ 0.38 µM) | 1 (≈ 1.52 µM) | 0.25 (≈ 0.38 µM) | –
9 | Nc1nc(/C(=N/OCc2nnn[nH]2)C(=O)N[C@@H]2C(=O)N(S(=O)(=O)O)[C@@H]2CNC(=O)NCc2cc(=O)c(O)cn2O)cs1 | 0.5 (≈ 0.795 µM) | 32 (≈ 50.9 µM) | 8 (≈ 12.7 µM) | 16 (≈ 25.5 µM) | 0.5 (≈ 0.795 µM) | –
10 | CC(C)(O/N=C(\C(=O)N[C@@H]1C(=O)N(S(=O)(=O)O)[C@@H]1CNC(=O)NCc1cc(=O)c(O)cn1O)c1csc(N)n1)C(=O)NO | 1 (≈ 1.54 µM) | 16 (≈ 24.7 µM) | 8 (≈ 12.4 µM) | > 64 | 1 (≈ 1.54 µM) | IC50 [5]: 270 nM; IC50 [6]: > 300 µM; IC50 [7]: 11.1 µM; IC50 [8]: 3020 nM
11 | Nc1nc(/C(=N/OC2(C(=O)O)CCCCC2)C(=O)N[C@@H]2C(=O)N(S(=O)(=O)O)[C@@H]2CNC(=O)NCc2cc(=O)c(O)cn2O)cs1 | – | 4 (≈ 5.95 µM) | – | 8 (≈ 11.9 µM) | 1 (≈ 1.49 µM) | –
12 | Nc1nc(/C(=N/OCC(=O)O)C(=O)N[C@@H]2C(=O)N(S(=O)(=O)O)[C@@H]2CNC(=O)NCc2cc(=O)c(O)cn2O)cs1 | – | 8 (≈ 13.2 µM) | – | 4 (≈ 6.62 µM) | 0.125 (≈ 0.207 µM) | –
13 | CC(C)(O/N=C(\C(=O)N[C@@H]1C(=O)N(S(=O)(=O)O)[C@@H]1CNC(=O)c1cccc(O)c1O)c1csc(N)n1)C(=O)O | 16 (≈ 27.3 µM) | 64 (≈ 109 µM) | 64 (≈ 109 µM) | 32 (≈ 54.6 µM) | 16 (≈ 27.3 µM) | –
14 | Nc1nc(/C(=N/O[C@@H](Cc2ccccc2)C(=O)O)C(=O)N[C@@H]2C(=O)N(S(=O)(=O)O)[C@@H]2CNC(=O)NCc2cc(=O)c(O)cn2O)cs1 | – | 1 (≈ 1.44 µM) | – | 8 (≈ 11.5 µM) | 1 (≈ 1.44 µM) | –
15 | Nc1nc(/C(=N/OC2(C(=O)O)CCC2)C(=O)N[C@@H]2C(=O)N(S(=O)(=O)O)[C@@H]2CNC(=O)NCc2cc(=O)c(O)cn2O)cs1 | 0.125 (≈ 0.194 µM) | 0.5 (≈ 0.776 µM) | – | 1 (≈ 1.55 µM) | – | IC50 [5]: 66 nM; IC50 [6]: > 300 µM; IC50 [7]: 2.46 µM; IC50 [8]: 340 nM
